Measured values from patent EP2316926B1, “Enantioselective production of alpha-hydroxy carbonyl compounds” (priority 2009, dated 2011).

Columns and labels:
Gox0644 = Gox0644 (Gluconobacter oxydans, UniProt Q5FT75); experiment: NADPH-dependent α-ketocarbonyl reductase activity assay (rate of decrease of NADPH at 340 nm); assay type: biochemical; details: Table 3; 10 mM substrate, 40 mM K-phosphate buffer pH 7.0, 0.05 mM NAD(P)H, 30 °C; U/mg = µmol x min^-1 x mg protein^-1
Description: Reactions were induced by addition of enzyme or substrate. One unit was defined as the amount of enzyme activity catalyzing the conversion of 1 µmol of pyridine nucleotide per min at 30 °C. NMR Analysis of Biotransformation Products: Biotransformations were extracted with equal volumes of CDCl3. and ^13C NMR spectra were recorded on a Bruker Avance 300 DPX spectrometer operating at 300 MHz for ^1H NMR and at 75 MHz for ^13C NMR, respectively.
Reactions were induced by addition of enzyme or substrate. One unit of activity was defined as the amount of enzyme activity catalyzing the conversion of 1 µmol of pyridine nucleotide per min at 30 °C.
The standard reaction mixture (1 ml) for the reduction reactions of substrates contained 10 mM substrate, 40 mM potassium phosphate buffer (K-phosphate buffer) pH 7.0, 0.05 mM NAD(P)H, and the enzyme unless otherwise noted. Reactions were induced by addition of enzyme or substrate. One unit of activity was defined as the amount of enzyme activity catalyzing the conversion of 1 µmol of pyridine nucleotide per min at 30 °C. […] Table 3: Enzymatic activities with α-diketones, α-ketoaldehydes and α-ketoesters

Gox1615 = target: T1, Gox1615 (Gluconobacter oxydans, UniProt Q5FQJ0); experiment: as above; assay type: biochemical
T1 sequence (Q5FQJ0 1-332): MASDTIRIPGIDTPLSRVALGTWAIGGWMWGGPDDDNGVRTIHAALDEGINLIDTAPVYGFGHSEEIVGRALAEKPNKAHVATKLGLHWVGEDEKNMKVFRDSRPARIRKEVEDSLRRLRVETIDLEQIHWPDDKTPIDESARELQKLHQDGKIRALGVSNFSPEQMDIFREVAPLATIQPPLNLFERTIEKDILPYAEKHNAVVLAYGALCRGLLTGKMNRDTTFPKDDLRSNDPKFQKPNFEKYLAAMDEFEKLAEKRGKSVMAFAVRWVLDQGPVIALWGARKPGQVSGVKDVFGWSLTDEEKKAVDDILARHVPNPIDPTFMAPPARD
Description: Measurement of enzyme activity: NADPH-dependent α-ketocarbonyl reductases were assayed by a routine method used for NAD(P)-linked enzymes by recording the rate of decrease of NADPH at 340 nm (ε = 6.22 mM^-1 x cm^-1)) with substrates at 30 °C. The reaction mixture (1 ml) for reduction of α-ketocarbonyl substrates contained 10 mM substrate, 40 mM potassium phosphate buffer pH 7.0, 0.025 mM NAD(P)H and the enzyme. Reactions were induced by addition of enzyme or substrate. One unit was defined as the amount of enzyme activity catalyzing the conversion of 1 µmol of pyridine nucleotide per min at 30 °C. NMR Analysis of Biotransformation Products: Biotransformations were extracted with equal volumes of CDCl3. and ^13C NMR spectra were recorded on a Bruker Avance 300 DPX spectrometer operating at 300 MHz for ^1H NMR and at 75 MHz for ^13C NMR, respectively. Spectra were processed using Bruker TonSpin 1.3 for Windows software and calibrated to the residual solvent peak of CDCl3 (δH = 7.26 / δC = 77.0).
NADPH-dependent α-ketocarbonyl reductases were assayed by a routine method used for NAD(P)-linked enzymes by recording the rate of decrease of NADPH at 340 nm (ε = 6.22 mM^-1.cm^-1) with substrates at 30 °C. The reaction mixture (1 ml) for reduction of α-ketocarbonyl substrates contained 10 mM substrate, 40 mM potassium phosphate buffer pH 7.0, 0.025 mM NADPH, and the enzyme. Reactions were induced by addition of enzyme or substrate. One unit of activity was defined as the amount of enzyme activity catalyzing the conversion of 1 µmol of pyridine nucleotide per min at 30 °C.
Purified NAD(P)-dependent oxidoreductases were assayed at 30 °C by a routine method used for NAD(P)-linked enzymes by recording the rate of decrease of NAD(P)H at 340 nm (ε = 6.22 mM^-1˙cm^-1) with substrates capable of reduction reactions. The standard reaction mixture (1 ml) for the reduction reactions of substrates contained 10 mM substrate, 40 mM potassium phosphate buffer (K-phosphate buffer) pH 7.0, 0.05 mM NAD(P)H, and the enzyme unless otherwise noted. Reactions were induced by addition of enzyme or substrate. One unit of activity was defined as the amount of enzyme activity catalyzing the conversion of 1 µmol of pyridine nucleotide per min at 30 °C. Measurement of the protein content was performed by the method of Bradford (Bradford M.M., Anal. Biochem. 72:248-254 (1976)). Table 3: Enzymatic activities with α-diketones, α-ketoaldehydes and α-ketoesters

## CCC(=O)C(C)=O [2,3-pentanedione]
Gox0644
  Gox0644 U/mg*: 69.6 U/mg
Gox1615; Table 3, 10 mM substrate, 40 mM K-phosphate buffer pH 7.0, 0.05 mM NAD(P)H, 30 °C, U/mg = µmol x min^-1 x mg protein^-1
  Gox1615 U/mg*: 7.0 U/mg
Gox1615; Table 5, cofactor NADPH, U/mg = µmol/mg·min
  Specific Activity (U/mg)*: 7.0 U/mg
